This note sets out measurements from patent US9802973B2, “Crystalline forms of ferric maltol” (SHIELD TX (UK) LTD., priority 2014, dated 2017).

The nature of series [1]: Solubility in pure water of the polymorphs. The note with it: 23° C.
Experimental: The solubility in pure water of samples of the different polymorphs was assessed at 23° C.
The nature of series [2]: Competitive slurries of polymorphs (XRPD of product). The class given is physicochemical. Here is the method:
Form IV (10 mg) was placed in water (1 ml) with 10 mg of Form I and Form II and stirred overnight at ambient temperature. A second slurry was set up to also include a further polymorph. Mixtures were filtered under suction and dried in a vacuum oven (45° C.).
The same experimental procedure was applied to a slurry involving Forms I, II, III and IV. The initial test was performed in water and a second was carried out in ethyl acetate. […] This work supports previous conclusions that Form II is the dominant form.

For `Cc1occc(=O)c1[O-].Cc1occc(=O)c1[O-].Cc1occc(=O)c1[O-].[Fe+3]` [Form II, ferric maltol], the Solubility in series [1] was 5900 µg/mL. Also, the “Form obtained from competitive slurry (XRPD)” value is recorded as “generated” in series [2] (Form IV with Form I and Form II, water, stirred overnight at ambient temperature); “isolated” in series [2] (slurry of Forms I, II, III and IV, in water and in ethyl acetate). Moreover, the “Relative stability of forms concluded from competitive slurries” value in series [2] (conclusion from competitive slurries) is on record as “dominant form”.
